ChEMBL document CHEMBL1671717, “In vitro potentiation of carbapenems with ME1071, a novel metallo-beta-lactamase inhibitor, against metallo-beta-lactamase- producing Pseudomonas aeruginosa clinical isolates” (Antimicrob Agents Chemother, 2010)

What was measured:
Beta-lactamase = Beta-lactamase (Pseudomonas aeruginosa, UniProt Q79MP6)
Description: Inhibition of Pseudomonas aeruginosa beta-lactamase IMP-1 assessed as hydrolysis of nitrocefin by UV spectrophotometric analysis

Beta-lactamase VIM-2 = Beta-lactamase VIM-2 (Pseudomonas aeruginosa, UniProt Q9K2N0)
Description: Inhibition of Pseudomonas aeruginosa beta-lactamase VIM-2 assessed as hydrolysis of nitrocefin by UV spectrophotometric analysis

Chain of Beta-lactamase (Q79MP6 whole entry): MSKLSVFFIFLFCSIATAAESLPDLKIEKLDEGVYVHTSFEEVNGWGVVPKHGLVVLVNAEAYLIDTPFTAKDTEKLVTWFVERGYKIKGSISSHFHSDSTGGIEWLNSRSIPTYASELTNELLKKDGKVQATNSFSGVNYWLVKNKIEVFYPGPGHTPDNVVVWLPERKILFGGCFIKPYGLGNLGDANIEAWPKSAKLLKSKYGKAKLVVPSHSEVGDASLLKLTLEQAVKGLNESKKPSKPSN

Row | SMILES | Ki (Beta-lactamase) | Ki (Beta-lactamase VIM-2)
1 | O=C(O)CS [THIOGLYCOLIC ACID] | 180 nM | 
2 | O=C(O)CCS [MERCAPTOPROPIONIC ACID] | 180 nM | 
3 | C[C@@H](O)[C@H]1C(=O)N2C(C(=O)O)=C(Sc3cc4ccccc4s3)[C@H](C)[C@H]12 | 180 nM | 
4 | COC1OC(C)=Cc2oc3cc(O)c(O)c(C(=O)O)c3c(=O)c21 (stereo not given) | 180 nM | 
5 | CC/C(C(=O)O)=C(\CC)C(=O)O |  | 120000 nM
